{"source": "patent US11304956B2", "about": "“Use of 7-bromo-5-(O-chlorophenyl)-3-propoxy-1,2-dihydro-3H-1,4-benzodiazepin-2-one for inhibition of neuropathic pain and seizures of different etiology” (priority 2016, dated 2022)", "system": "thermal tail flick test in rats", "experiment": "Model of thermal stimulation (tail-flick)", "assay_type": "in vivo", "settings": "n=10", "excerpt": "The problem was solved by experimental study of the antinociceptive action of the test compound 1 on the model of NP in rats and on the model of pain with the participation of central mechanisms, in particular, thermal tail flick test in rats. Based on the available data on the positive response of constant pain to anticonvulsants in the acute and paroxysmal phase and considering structure 1, we performed an evaluation of the anticonvulsant action of the compound on models of pentamethylenetetrazol-induced convulsions and seizures caused by maximal electroshock (MES). We have taken into account the possible side reaction (ulcerogenic effect) of the compound in experimental animals, expressed in the formation of defects in the mucous membrane of the gastrointestinal tract or in provocation of already existing peptic ulcer relapses. The probability of ulcers formation of medicinal origin is especially high during administration of non-steroidal anti-inflammatory drugs in high doses and in combination with their long-term use in the form of tablets.\nA more pronounced effect was after parenteral administration (see Table 2). Control: solvent (twin, distilled water, pH-corrector). Results of the study of Compound 1 and ketorolac analgesic effects on the model of thermal stimulation (tail-flick) as degree of pain sensitivity threshold increase in relation to the initial level (%), n=10, are given in Table 2."}
{"smiles": "CCCOC1N=C(c2ccccc2Cl)c2cc(Br)ccc2NC1=O", "note": "(stereo not drawn) [Compound 1, 7-bromo-5-(o-chlorophenyl)-3-propoxy-1,2-dihydro-3H-1,4-benzodiazepin-2-one]", "values": [{"measurement": "Degree of pain sensitivity threshold increase in relation to the initial level", "setting": "0.5 mg/kg intraperitoneally, 1 hour", "result": "+27.4%"}, {"measurement": "Degree of pain sensitivity threshold increase in relation to the initial level", "setting": "0.5 mg/kg intraperitoneally, 2 hours", "result": "+38.4%"}, {"measurement": "Degree of pain sensitivity threshold increase in relation to the initial level", "setting": "0.5 mg/kg intraperitoneally, 4 hours", "result": "+42.3%"}, {"measurement": "Degree of pain sensitivity threshold increase in relation to the initial level", "setting": "0.5 mg/kg intraperitoneally, 6 hours", "result": "+34.9%"}, {"measurement": "Degree of pain sensitivity threshold increase in relation to the initial level", "setting": "0.5 mg/kg orally, 1 hour", "result": "+13.2%"}, {"measurement": "Degree of pain sensitivity threshold increase in relation to the initial level", "setting": "0.5 mg/kg orally, 2 hours", "result": "+22.4%"}, {"measurement": "Degree of pain sensitivity threshold increase in relation to the initial level", "setting": "0.5 mg/kg orally, 4 hours", "result": "+21.7%"}, {"measurement": "Degree of pain sensitivity threshold increase in relation to the initial level", "setting": "0.5 mg/kg orally, 6 hours", "result": "+8.77%"}, {"measurement": "Degree of pain sensitivity threshold increase in relation to the initial level", "setting": "3 mg/kg orally, 1 hour", "result": "+60.7%"}, {"measurement": "Degree of pain sensitivity threshold increase in relation to the initial level", "setting": "3 mg/kg orally, 2 hours", "result": "+83.3%"}, {"measurement": "Degree of pain sensitivity threshold increase in relation to the initial level", "setting": "3 mg/kg orally, 4 hours", "result": "+65.2%"}, {"measurement": "Degree of pain sensitivity threshold increase in relation to the initial level", "setting": "3 mg/kg orally, 6 hours", "result": "+39.4%"}]}
